Measured values from US20110015413A1, “PROCESS FOR PREPARING CRYSTALLINE CALCIUM MUPIROCIN DIHYDRATE” (priority 2008, published 2011).

Key:
[1] = Morphology and particle size by thermal field scanning electron microscopy (FE SEM); type: physicochemical; conditions: fused primary particles formed during crystallisation, FIG. 2
Description: The morphology of crystalline mupirocin calcium dihydrate produced according to the procedure of Example 2 was examined by thermal field scanning electron microscopy (FE SEM). An FE SEM microscope, model JSM-7000F, manufactured by Jeol Ltd., Japan, was used in the inspection of samples. The FE SEM microscope was coupled with an EDS/INCA 350 (energy dispersive X-ray analyzer) manufactured by Oxford Instruments Ltd. The samples inspected by FE SEM were not coated with a conductive layer. […] Calcium mupirocin dihydrate crystallize in a columnar particle shape having a mean particle size from about 100 to about 700 nm. During the crystallisation process primary particles, i.e., crystals, are fused to form agglomerates (FIG. 2) having a mean particle size of about 10 μm. During the drying process, the agglomerates adhere to each other, forming aggregates having a mean particle size from about 30 μm to about 400 μm.

[2] = amorphous form, quoted description; cited from earlier work
[3] = amorphous form, quoted description; cited from earlier work; remark: listed apart in the source

| mean particle size of agglomerates [1] | SMILES | water solubility [2] | thermal stability [3] |
| --- | --- | --- | --- |
| about 10 μm | C/C(=C\C(=O)OCCCCCCCCC(=O)O)C[C@@H]1OC[C@H](C[C@@H]2O[C@H]2[C@@H](C)[C@H](C)O)[C@@H](O)[C@H]1O [Calcium mupirocin dihydrate, mupirocin calcium dihydrate] | – | – |
| – | C/C(=C\C(=O)OCCCCCCCCC(=O)[O-])C[C@@H]1OC[C@H](C[C@@H]2O[C@H]2[C@@H](C)[C@H](C)O)[C@@H](O)[C@H]1O.C/C(=C\C(=O)OCCCCCCCCC(=O)[O-])C[C@@H]1OC[C@H](C[C@@H]2O[C@H]2[C@@H](C)[C@H](C)O)[C@@H](O)[C@H]1O.O.O.[Ca+2] [amorphous calcium salt of mupirocin] | sparingly water soluble | poor thermal stability |
